Converted amounts (≈) assume the structure as drawn. Where two headings read alike, the source gives them in different places.
Columns and labels:
Type in all cases: cell-based
[1] = tested on: Enterococcus faecium (VRE) MB310; experiment: MIC agar dilution, VRE strain 29
Protocol: (§1) Molar equivalent concentrations were used to allow comparison between compounds of differing molecular mass. Due to weighing difficulties, any compound in solid form was melted in a water bath prior to dilution. To make ten-times strength concentrations, which takes into account agar dilution, 0.0352 mmol of each compound was weighed into plastic universal bottles and 4 mL of sterile distilled water (SDW) was added. To produce a homogenous emulsion the universals were vortexed; once achieved the emulsions were serial diluted by adding 2 mL to 2 mL of SDW.
(§2) For every 100 mL of Isosensitest agar (IST) (CM0471; Oxoid, Basingstoke, England), 3.1 g of the IST powder was added to 100 mL SDW (as per manufacturer's instructions) and sterilised for 15 minutes at 121° C. Once sterilised, the molten agar was cooled to 50° C. in a water-bath. Subsequently 4.8 g of CCEY powder (BC2160; Bioconnections, Wetherby, England), also known as Brazier's medium, was added to 100 mL SDW for every 100 mL of agar needed. This was then sterilised for 15 minutes at 121° C. Once sterilised the molten agar was cooled to 50° C. in a water-bath and 4 mL of egg-yolk emulsion (S2073; TCS Biosciences Ltd, Buckingham, United Kingdom) and 1 mL of lysed defibrinated horse blood (HB035; TCS Biosciences Ltd, Buckingham, United Kingdom) were also added for every 100 mL needed. Horse blood lysis is achieved by dilution to half concentration with SDW; when fully lysed the mixture will turn dark red in colour.
(§3) 18 mL agar was added to each universal and then poured into sterile Petri dishes. This step creates a 1/10 dilution resulting in agar plates of the required strength. Control plates for each set of strains were created by adding 18 mL of agar to 2 mL of SDW.
(§4) Suspensions of each bacterial species were prepared with a density equal to that of a 0.5 McFarland standard using a densitometer. All suspensions were made using sterile distilled water and fresh 18-20 hour cultures. As a 0.5 McFarland standard contains 1.5×10^8 CFU/mL and the multipoint inoculators applies 1 μL spots of liquid, each bacterial suspension was diluted 1/15 (20 μL suspension to 280 μL sterile distilled water).
(§5) Bacterial suspensions were prepared from fresh 18-24 hour cultures as previously described. 1 μL of each strain was inoculated onto all 100 agar plates containing a different chemical concentration and the 2 control plates. This was done using a multipoint inoculator which inoculates 20 strains per plate. All plates were incubated for 22 hours at 37° C. in aerobic conditions.
(§6) Each plate was examined for bacterial growth after 22 and 48 hours, with each being incubated in between examinations. A positive result was recorded as growth of ≧10 colonies. A negative result was recorded as growth of <10 colonies as this is equivalent to 99.9% inhibition. The lowest concentration of chemical that inhibited growth was recorded as the MIC. The results are recorded in Table IV below, where the numbers are quoted in mmol/L.
(§7) Given the positive performance of the ethoxylates of lauryl alcohol in reducing the MIC for a number of the micro-organisms tested, further MIC testing of Laureth-1 [C12E1] through to Laureth-8 [C12E8] was conducted on each of the following: • 10 strains of vancomycin-resistant enterococci (VRE)—listed in Table V below; and • 20 strains of methicillin-resistant Staphylococcus aureus (MRSA)—listed in Table VI.
(§8) The alkanol, alkanol derivatives, agar plates, and inocula were all prepared in the same way as described above.
(§9) The plates were examined in the same manner as described above and the results are recorded in Table VII below, where the numbers are quoted in mmol/L.

[2] = tested on: Enterococcus faecium (VRE) MB 305; experiment: MIC agar dilution, VRE strain 25
Protocol: as §1, §2, §3, §4, §5, §6, §7, §8, §9

Candida glabrata = experiment: MIC agar dilution, micro-organism 20 (3943); conditions: Nakaseomyces glabratus, Candida glabrata 3943, read-out: MIC
Procedure, shortened: (§10)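 Agar dilution in Isosensitest/CCEY agar with egg yolk and lysed horse blood; compounds as aqueous emulsions (myristyl and lauryl alcohol with 1-methyl-2-pyrrolidone and Tween 20). 1 µL spots of 1/15-diluted 0.5 McFarland suspensions, 37 °C aerobic, read at 22 and 48 h; MIC (mmol/L) is lowest concentration giving <10 colonies.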

MRSA EMRSA 15 21698/98 = experiment: MIC agar dilution, MRSA strain 41; conditions: Staphylococcus aureus
Protocol: as §1, §2, §3, §4, §5, §6, §7, §8, §9

Enterococcus faecalis = experiment: MIC agar dilution, micro-organism 17 (775); conditions: Enterococcus faecalis 775, read-out: MIC
Procedure, shortened: as §10

[3] = tested on: MRSA GER 131/98 (Sger Iidc); experiment: MIC agar dilution, MRSA strain 35; conditions: Staphylococcus aureus
Protocol: as §1, §2, §3, §4, §5, §6, §7, §8, §9

MRSA FIN 54511 (E6) = experiment: MIC agar dilution, MRSA strain 32; conditions: Staphylococcus aureus
Protocol: as §1, §2, §3, §4, §5, §6, §7, §8, §9

Bacillus subtilis = experiment: MIC agar dilution, micro-organism 18 (9372); conditions: Bacillus subtilis 9372, read-out: MIC
Procedure, shortened: as §10

Candida albicans = experiment: MIC agar dilution, micro-organism 19 (90028); conditions: Candida albicans 90028, read-out: MIC
Procedure, shortened: as §10

MRSA EMRSA 15 19972/98 = experiment: MIC agar dilution, MRSA strain 39; conditions: Staphylococcus aureus
Protocol: as §1, §2, §3, §4, §5, §6, §7, §8, §9

MRSA EMRSA 16 07924/95 = experiment: MIC agar dilution, MRSA strain 49; conditions: Staphylococcus aureus
Protocol: as §1, §2, §3, §4, §5, §6, §7, §8, §9

MRSA EMRSA 16 21354/95 = experiment: MIC agar dilution, MRSA strain 44; conditions: Staphylococcus aureus
Protocol: as §1, §2, §3, §4, §5, §6, §7, §8, §9

[4] = tested on: Enterococcus faecium (VRE) 12185 Clin waste; experiment: MIC agar dilution, VRE strain 24
Protocol: as §1, §2, §3, §4, §5, §6, §7, §8, §9

MIC ([1]; 22 hrs): > 880 µM
MIC ([1]; 48 hrs): > 880 µM
MIC ([2]; 22 hrs): > 880 µM
MIC ([2]; 48 hrs): > 880 µM
MIC (Candida glabrata; 22 h, 22 hrs): > 880 µM
MIC (Candida glabrata; 48 h, 48 hrs): > 880 µM
MIC (MRSA EMRSA 15 21698/98; 22 hrs): > 440 µM
MIC (MRSA EMRSA 15 21698/98; 48 hrs): > 440 µM
MIC (Enterococcus faecalis; 22 hrs): 110 µM (≈ 59.3 µg/mL)
MIC (Enterococcus faecalis; 48 hrs): 110 µM (≈ 59.3 µg/mL)
MIC ([3]; 22 hrs): 440 µM (≈ 237 µg/mL)
MIC ([3]; 48 hrs): > 440 µM
MIC (MRSA FIN 54511 (E6); 22 hrs): 220 µM (≈ 119 µg/mL)
MIC (MRSA FIN 54511 (E6); 48 hrs): > 440 µM
MIC (Bacillus subtilis; 22 hrs): 110 µM (≈ 59.3 µg/mL)
MIC (Bacillus subtilis; 48 hrs): 110 µM (≈ 59.3 µg/mL)
MIC (Candida albicans; 22 hrs): > 880 µM
MIC (Candida albicans; 48 hrs): > 880 µM
MIC (MRSA EMRSA 15 19972/98; 22 hrs): > 440 µM
MIC (MRSA EMRSA 15 19972/98; 48 hrs): > 440 µM
MIC (MRSA EMRSA 16 07924/95; 22 hrs): > 440 µM
MIC (MRSA EMRSA 16 07924/95; 48 hrs): > 440 µM
MIC (MRSA EMRSA 16 21354/95; 22 hrs): > 440 µM
MIC (MRSA EMRSA 16 21354/95; 48 hrs): > 440 µM
MIC ([4]; 22 hrs): > 880 µM
MIC ([4]; 48 hrs): > 880 µM
Compound: CCCCCCCCCCCCOCCOCCOCCOCCOCCOCCOCCOCCO [L8, Octaethylene Glycol Monododecyl Ether]

Source: US20130165368A1, “ANTIMICROBIAL COMPOUNDS” (priority 2010, published 2013)
